Measurements published in article PMC10605010, “Immunotechniques for the Group Determination of Macrolide Antibiotics Traces in the Environment Using a Volume-Mediated Sensitivity Enhancement Strategy” (Biosensors, 2023).
Values after ≈ are worked out from the molar mass of the structure shown. Values joined by “and” are separate entries in the source; they are usually repeats but may differ in a detail not shown here. Equal values may be shown once. Read-outs that look alike come from different tables or passages of the source.

Columns and labels:
[1] = tested on: antibody to immunogen BSA-cmoCLA(ae); set-up: method as in PMID 32693204; conditions: breast milk, cited from earlier work; for CR: CLA = 100
[2] = tested on: antibody to immunogen BSA-cmoERY(ma); set-up: method as in PMID 25308648; conditions: milk; ERY = 100; cited from earlier work
[3] = tested on: anti-BSA-cmoCLA(ae) antibodies; test: Indirect competitive ELISA (icELISA), variants by coating antigen; type: binding, rabbit; conditions: for CR: CLA = 100
Method: In present work, we investigated and compared several new-designed and previously established coating antigens, which were adsorbed on the 96-well Costar plates from 0.1 to 3.0 µg/mL solutions in CBB (pH 9.6) overnight at 4 °C. […] Solutions of these analytes (1 pg/mL–1 μg/mL) were added to wells of the plate along with anti-cmoCLA antibody in PBS-T with 1%BSA and incubated for 1 h at 25 °C in plate-shaker ST-3 L (ELMI Ltd. laboratory equipment, Riga, Latvia). GAR-HRP was used to detect antigen-antibody formed complexes for 1 h at 37 °C. The activity of the bound enzyme was detected using TMB-substrate mixture, and the intensity of colored product was read at 450 nm using a LisaScan spectrophotometer (Erba Mannheim, Czech Republic). […] The relative antibody-binding absorbance (B/B0) was determined for each concentration of analyte and used to construct a calibration curve as B/B0 versus the concentration. Structurally related macrolides CLA, ESE, ROX, AZI, DIR, TUL, and OLE were analyzed for their cross-reactions. […] Assay sensitivity, limit of detection (LOD), and working range of the assay were set as values of IC50, IC10, and IC20-IC80 range, respectively.

[4] = tested on: antibody to immunogen BSA-cmoERY(ma); conditions: milk; ERY = 100; cited from earlier work
[5] = tested on: anti-BSA-cmoCLA(ae) antibodies; set-up: method as in PMID 25256165; conditions: coating antigen GEL-cmoCLA(ae), cited from earlier work; for IC50: homologous; for CR: CLA = 100, recalculated from ref 18
[6] = tested on: antibody to immunogen BSA-cmoCLA(ae); set-up: method as in doi:10.1039/C9QM00429G; conditions: milk, cited from earlier work; for CR: CLA = 100
[7] = coating antigen OVA-aecAZI(dma)

Row | Compound | CR [1] [%] | CR [2] [%] | IC50 ([3]; coating antigen OVA(pi)-aecAZI) [ng/mL] | CR ([3]; coating antigen OVA(pi)-aecAZI) | IC50 [3, 7] [ng/mL] | CR [3, 7] [%] | IC50 ([3]; coating antigen OVA-aecAZI(ga)) [ng/mL] | CR ([3]; coating antigen OVA-aecAZI(ga)) [%] | IC50 ([3]; coating antigen OVA-cmoERY(ae)) [ng/mL] | CR ([3]; coating antigen OVA-cmoERY(ae)) | CR [4] [%] | IC50 [5] [ng/mL] | CR [5] | IC50 [1] [ng/mL] | LOD [1] [ng/mL] | CR [6] [%] | IC50 [6] [ng/mL] | LOD [6] [ng/mL] | CR (detectability) ([3]; span over all ELISAs utilizing coated AZI conjugates)
1 | CC[C@H]1OC(=O)[C@H](C)[C@@H](O[C@H]2C[C@@](C)(OC)[C@@H](O)[C@H](C)O2)[C@H](C)[C@@H](O[C@@H]2O[C@H](C)C[C@H](N(C)C)[C@H]2O)[C@](C)(O)C[C@@H](C)[C@@H]2N[C@@H](COCCOC)O[C@H]([C@H]2C)[C@]1(C)O [DIR, dirithromycin] | 5.4 | 157 | 0.096 (≈ 0.115 nM) | 45.8% | 0.544 (≈ 0.651 nM) | 28.9 | 0.136 (≈ 0.163 nM) | 31.6 | 0.554 (≈ 0.663 nM) | 31% | 157 | – | – | – | – | – | – | – | –
2 | CC[C@H]1OC(=O)[C@H](C)[C@@H](O[C@H]2C[C@@](C)(OC)[C@@H](O)[C@H](C)O2)[C@H](C)[C@@H](O[C@@H]2O[C@H](C)C[C@H](N(C)C)[C@H]2O)[C@](C)(OC)C[C@@H](C)C(=O)[C@H](C)[C@@H](O)[C@]1(C)O [CLA, clarithromycin] | 100 | 26.7 | 0.044 (≈ 0.0588 nM) | 100% | 0.157 (≈ 0.21 nM) | 100 | 0.043 (≈ 0.0575 nM) | 100 | 0.172 (≈ 0.23 nM) | 100% | 26.7 | 0.16 (≈ 0.214 nM) | 100% | 0.45 (≈ 0.602 nM) | 0.12 | 100 | 0.16 (≈ 0.214 nM) | 0.095 | –
3 | CCCNC[C@]1(O)[C@H](C)O[C@@H](O[C@H]2[C@H](C)[C@@H](O[C@@H]3O[C@H](C)C[C@H](N(C)C)[C@H]3O)[C@](C)(O)C[C@@H](C)CN[C@H](C)[C@@H](O)[C@](C)(O)[C@@H](CC)OC(=O)[C@@H]2C)C[C@@]1(C)OC [TUL, tulathromycin] | – | – | 5.403 (≈ 6.7 nM) | 0.81% | 379.5 (≈ 471 nM) | 0.04 | 134.8 (≈ 167 nM) | 0.03 | 629.9 (≈ 781 nM) | – | – | – | – | – | – | – | – | – | –
4 | CCOC(=O)CCC(=O)O[C@H]1[C@H](O[C@@H]2[C@@H](C)[C@H](O[C@H]3C[C@@](C)(OC)[C@@H](O)[C@H](C)O3)[C@@H](C)C(=O)O[C@H](CC)[C@@](C)(O)[C@H](O)[C@@H](C)C(=O)[C@H](C)C[C@@]2(C)O)O[C@H](C)C[C@@H]1N(C)C [ESE, erythromycin ethyl succinate] | – | – | 0.074 | 59.5% | 0.352 | 44.6 | 0.094 | 45.7 | 0.466 | 37% and 36.9% | 43.7 | – | – | – | – | – | – | – | –
5 | CO[C@H]1C[C@H](O[C@H]2[C@H](C)[C@@H](O[C@@H]3O[C@H](C)C[C@H](N(C)C)[C@H]3O)[C@@H](C)C[C@@]3(CO3)C(=O)[C@H](C)[C@@H](O)[C@@H](C)[C@@H](C)OC(=O)[C@@H]2C)O[C@@H](C)[C@@H]1O [OLE, oleandomycin] | – | – | 45.64 (≈ 66.3 nM) | 0.1% | 287.2 (≈ 418 nM) | 0.05 | 40.10 (≈ 58.3 nM) | 0.11 | 75.75 (≈ 110 nM) | 0.2% | – | – | – | – | – | – | – | – | –
6 | CC[C@H]1OC(=O)[C@H](C)[C@@H](O[C@H]2C[C@@](C)(OC)[C@@H](O)[C@H](C)O2)[C@H](C)[C@@H](O[C@@H]2O[C@H](C)C[C@H](N(C)C)[C@H]2O)[C@](C)(O)C[C@@H](C)CN(C)[C@H](C)[C@@H](O)[C@]1(C)O [AZI, azithromycin] | 5.7 | 0.9 | 0.107 (≈ 0.143 nM) | 41% and 41.1% | 1.220 (≈ 1.63 nM) | 12.9 | 0.315 (≈ 0.421 nM) | 13.7 | 1.990 (≈ 2.66 nM) | 9% and 8.6% | – | 1.63 (≈ 2.18 nM) | 9% and 8.8% | – | – | 16.2 | – | – | 13–41%
7 | CC[C@H]1OC(=O)[C@H](C)[C@@H](O[C@H]2C[C@@](C)(OC)[C@@H](O)[C@H](C)O2)[C@H](C)[C@@H](O[C@@H]2O[C@H](C)C[C@H](N(C)C)[C@H]2O)[C@](C)(O)C[C@@H](C)/C(=N\OCOCCOC)[C@H](C)[C@@H](O)[C@]1(C)O [ROX, roxithromycin] | 97.8 | 14.8 | 0.051 (≈ 0.0609 nM) | 86.3% | 0.157 (≈ 0.188 nM) | 100 | 0.040 (≈ 0.0478 nM) | 107.5 | 0.125 (≈ 0.149 nM) | 137.6% | 92 | 0.14 (≈ 0.167 nM) | 125% | – | – | 21.1 | – | – | –
